Source: article PMC9785169, “New Insights Regarding Hemin Inhibition of the Purified Rat Brain 2-Oxoglutarate Carrier and Relationships with Mitochondrial Dysfunction” (Journal of Clinical Medicine, 2022)

Target: T1, 2-oxoglutarate/malate carrier (OGC) (Rattus norvegicus, UniProt P97700)
T1 construct: gene Slc25a11; OGC purified from rat brain mitochondria, reconstituted into proteoliposomes
T1 sequence (P97700 2-314): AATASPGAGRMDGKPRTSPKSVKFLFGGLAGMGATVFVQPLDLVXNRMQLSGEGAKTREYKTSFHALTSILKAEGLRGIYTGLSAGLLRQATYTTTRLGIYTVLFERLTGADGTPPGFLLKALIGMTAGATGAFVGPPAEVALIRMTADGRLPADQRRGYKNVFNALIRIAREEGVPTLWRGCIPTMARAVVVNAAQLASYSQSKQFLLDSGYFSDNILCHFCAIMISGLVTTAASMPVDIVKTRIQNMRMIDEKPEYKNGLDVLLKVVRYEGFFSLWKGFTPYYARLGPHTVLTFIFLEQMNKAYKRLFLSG
Assay: […]malate uptake inhibition in proteoliposomes reconstituted with purified OGC, internal hemin
Format: biochemical

`C=CC1=C(C)C2=Cc3c(C=C)c(C)c4[n]3[Fe]([Cl])[n]3c(c(C)c(CCC(=O)O)c3=CC3=NC(=C4)C(C)=C3CCC(=O)O)=CC1=N2` [hemin] was tested, and the IC50 was 82 ± 7 nM.
